Measurements from patent publication US9938249B2, “Anti-amyloid compounds containing benzofurazan” (Treventis Corporation, priority 2014, dated 2018).

What follows are molecules tested against Terminally biotinylated beta-amyloid (Aβ42) (Homo sapiens, UniProt P05067) (assay: Aβ42 biotinylated (biotin-AB) oligomerization assay, NeutrAvidin capture ELISA). Details: approximate value; 1 hr oligomerization at room temperature; read-out: IC50 Aβ 42-bio.
Type: biochemical
Procedure: Aβ42 Biotinylated Assay Terminally biotinylated beta-amyloid (biotin-AB) was dissolved in HFIP at the concentration of 1 mg/ml and aliquoted to 50 μl/tube in 0.65 ml colored microfuge tubes (Fisher 02-681-248). The aliquots were diluted immediately by adding 450 μl of HFIP to 0.1 mg/ml. Approximately 46 ul (containing approximately 4.6 ug of biotin-AB) were taken from a tube, 100 ul of HFIP added, vortexed, and dried to a thin film under an N2 stream. 100 μl of trifluoroacetic acid (TFA) was added and vortexed. After 10 minute incubation at room temperature in a hood, resulting in disaggregation of seeds, the sample was vortexed again and dried again to a thin film under an N2 stream. 100 μl of HFIP was added, mixed, and the biotin-AB sample was dried for a third time under an N2 stream to remove residual TFA. The treated biotin-AB was dissolved in DMSO to a final peptide concentration of […] (SOX). An ELISA “capture” plate (Costar 9018) was coated with 50 μl of 1 μg/ml NeutrAvidin™ (NA) in 10 mM sodium phosphate buffer, pH 7.5. (NeutrAvidin can be prepared as 1 mg/ml (1000×) in milliQ water/10% glycerol and stored at −80° C. before use.) The plate was sealed plate with adhesive film and stored at 4° C. overnight, then blocked for 2 hours (unsealed) at room temperature with 200 μl/well OFB+0.1% v/v Tween 20. The “capture” plate was allowed to come to room temperature. Several dilutions of test compound were prepared with 100% DMSO, according to the desired concentration to be tested. 2.5 μl of diluted test compound was pipetted into the bottom of each well of a 96-well “dilution” polypropylene plate (Costar 3365), to which was added 250 ul of Oligomer Formation Buffer (OFB: 20 mM sodium phosphate, pH 7.5-150 mM NaCl). To begin oligomerization, 2 μl/well of the biotin-AB was added to the bottom of each well of a 96-well “reaction” polypropylene plate (Costar 3365) and 100 ul of each well of the “dilution” plate was transferred to the “reaction” plate (final concentration of DMSO being up to 1%). The reaction plate was sealed and incubated for 1 hr at room temperature without shaking. The reaction was then stopped by the addition of 50 ul of 0.3% Tween 20 in water. The “capture” plate blocking solution was removed, and 50 ul of each well of the “reaction” plate was transferred to each well of the “capture” plate. The “capture” plate was sealed and incubated for 2 hours at room temperature with shaking at 150 rpm. The “capture” plate was then washed on a plate washer (3×) with 200 ul/well TBST (20 mM Tris-HCL, pH 7.5/150 mM NaCl/0.1% Tween 20). 50 ul of Streptavidin-horseradish […] (1:20,000 dilution) in OFB+0.1% Tween 20 was added to each well, the “capture” plate was sealed and incubated for 1 hr with shaking at 150 rpm. As before, the plate was washed, then 100 ul of TMB/H2O2 substrate solution was added to each well. After 5-10 minutes, 100 ul of 1% v/v sulfuric acid was added and the absorbance of each well was read at 450 nm using a standard plate reader. Data is summarized in the table below; numbers given in parenthesis for the Aβ 40 Thioflavin T assays are the values in that particular experiment for compound ID 1027, given as the first entry in this table for structural comparison. “IC50 Aβ42-bio” column refers to the approximate value of the Aβ42 biotinylated assay IC50 in micromoles/L.

Terminally biotinylated beta-amyloid (Aβ42), sequence (P05067 672-713, species assumed): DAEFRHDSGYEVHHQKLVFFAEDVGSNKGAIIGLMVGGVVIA

First: CC(=O)NC1CCN(c2cc(-c3ccc(C4(O)COC4)cc3)cc3nonc23)CC1 [compound 1735]
Second: OC1(c2ccc(-c3cc(N4CCC(N5CCOCC5)CC4)c4nonc4c3)cc2)COC1 [compound 1717]
The IC50 of the first is 9.4-fold lower: 2.4 µM for the first, 22.6 µM for the second.

OC(c1ccc(-c2cc(N3CC(CN4CCCC4)C3)c3nonc3c2)nc1)C(F)(F)F (stereo not shown) [compound 1545] and OC(c1cccnc1-c1cc(N2CC(CN3CCCC3)C2)c2nonc2c1)C(F)(F)F (stereo not shown) [compound 1564, 2,2,2-trifluoro-1-(2-(7-(3-(pyrrolidin-1-ylmethyl)azetidin-1-yl)benzo[c][1,2,5]oxadiazol-5-yl)pyridin-3-yl) ethan-1-ol] are within 1.5-fold of each other in IC50: 8.4 µM for the first, 6 µM for the second.

OCc1csc(-c2cc(N3CC(CN4CCOCC4)C3)c3nonc3c2)n1 [compound 1565] and OCc1nc(-c2cc(N3CC(CN4CCOCC4)C3)c3nonc3c2)cs1 [compound 1566] cannot be ordered by IC50: over 20 µM for the first, over 20 µM for the second.

N#Cc1cc(N2CC(CN3CCOCC3)C2)c2nonc2c1 [compound 1570, 7-(3-(morpholinomethyl)azetidin-1-yl) benzo[c][1,2,5]oxadiazole-5-carbonitrile] and OCc1cc(N2CC(CN3CCOCC3)C2)c2nonc2c1 [compound 1571, (7-(3-(morpholinomethyl)azetidin-1-yl)benzo[c][1,2,5]oxadiazol-5-yl)methanol] cannot be ordered by IC50: over 20 µM for the first, over 20 µM for the second.

OC(c1csc(-c2cc(N3CC(CN4CCOCC4)C3)c3nonc3c2)n1)C(F)(F)F (stereo not shown) [compound 1626] and OC(c1coc(-c2cc(N3CC(CN4CCOCC4)C3)c3nonc3c2)n1)C(F)(F)F (stereo not shown) [compound 1608, 2,2,2-trifluoro-1-(2-(7-(3-(morpholinomethyl)azetidin-1-yl)benzo[c][1,2,5]oxadiazol-5-yl)oxazol-4-yl)ethan-1-ol] are within 1.5-fold of each other in IC50: 10.9 µM for the first, 8.6 µM for the second.

Going from Cn1ncc(C(O)C(F)(F)F)c1-c1cc(N2CC(CN3CCOCC3)C2)c2nonc2c1 (stereo not shown) [compound 1651] to Cn1ncc(-c2cc(N3CC(CN4CCOCC4)C3)c3nonc3c2)c1C(O)C(F)(F)F (stereo not shown) [compound 1647], the IC50 falls from 30.1 µM to 14.7 µM (2-fold).

Going from OC(c1cnc(-c2cc(N3CC(CN4CCCC4)C3)c3nonc3c2)s1)C(F)(F)F (stereo not shown) [compound 1597] to OC(c1nc(-c2cc(N3CC(CN4CCCC4)C3)c3nonc3c2)cs1)C(F)(F)F (stereo not shown) [compound 1567], the IC50 rises from 7.5 µM to 26.9 µM (3.6-fold).

NC(=O)c1ccc(-c2cc(N3CC(CN4CCOCC4)C3)c3nonc3c2)cc1 [compound 1610, 4-(7-(3-(morpholinomethyl)azetidin-1-yl)benzo[c][1,2,5]oxadiazol-5-yl)benzamide] and NC(=O)c1cccc(-c2cc(N3CC(CN4CCOCC4)C3)c3nonc3c2)c1 [compound 1576, 3-(7-(3-(morpholinomethyl)zetidin-1-yl)benzo[c][1,2,5]oxadiazol-5-yl) benzamide] cannot be ordered by IC50: over 20 µM for the first, 46 µM for the second.

OCc1ccc(-c2cc(N3CC(CN4CCOCC4)C3)c3nonc3c2)cc1 [compound 1592] and N#Cc1ccc(-c2cc(N3CC(CN4CCOCC4)C3)c3nonc3c2)cc1 [compound 1574, 4-(7-(3-(morpholinomethyl)azetidin-1-yl)benzo[c][1,2,5]oxadiazol-5-yl)benzonitrile] are within 1.5-fold of each other in IC50: 15.1 µM for the first, 16.5 µM for the second.

Compared with Fc1ccc(-c2cc(N3CC(CN4CCCC4)C3)c3nonc3c2)cc1 [compound 1547], Cc1ccc(C)c(-c2cc(N3CC(CN4CCCC4)C3)c3nonc3c2)c1 [compound 1559] is 1.6-fold lower in IC50: 12 µM for the first, 7.6 µM for the second.

CC(c1cc(N2CC(CN3CCCC3)C2)c2nonc2c1)N(C1CC1)S(C)(=O)=O (stereo not shown) [compound 1549] and CC(NC1CC1)c1cc(N2CC(CN3CCCC3)C2)c2nonc2c1 (stereo not shown) [compound 1551] are within 1.5-fold of each other in IC50: 5.5 µM for the first, 6.8 µM for the second.

Going from OC(c1cncc(-c2cc(N3CC(CN4CCOCC4)C3)c3nonc3c2)c1)C(F)(F)F (stereo not shown) [compound 1621, 2,2,2-trifluoro-1-(5-(7-(3-(morpholinomethyl)azetidin-1-yl)benzo[c][1,2,5]oxadiazol-5-yl)pyridin-3-yl)ethan-1-ol] to OC(c1cncc(-c2cc(N3CC(CN4CCCC4)C3)c3nonc3c2)c1)C(F)(F)F (stereo not shown) [compound 1544], the IC50 falls from 16.7 µM to 3.9 µM (4.3-fold).

O=C(c1cc(N2CC(CN3CCCC3)C2)c2nonc2c1)N1CCCCC1 [compound 1552] and CS(=O)(=O)N1CCCCC1c1cc(N2CC(CN3CCCC3)C2)c2nonc2c1 (stereo not shown) [compound 1554] are within 1.5-fold of each other in IC50: 5.7 µM for the first, 8.3 µM for the second.

OC(/C=C/c1cc(N2CC(CN3CCOCC3)C2)c2nonc2c1)C(F)(F)F (stereo not shown) [compound 1665, (E)-1,1,1-trifluoro-4-(7-(3-(morpholinomethyl)azetidin-1-yl)benzo[c][1,2,5]oxadiazol-5-yl)but-3-en-2-ol] and CC(C)(O)/C=C/c1cc(N2CC(CN3CCOCC3)C2)c2nonc2c1 [compound 1645, (E)-2-methyl-4-(7-(3-(morpholinomethyl)azetidin-1-yl)benzo[c][1,2,5]oxadiazol-5-yl)but-3-en-2-ol] cannot be ordered by IC50: 21.8 µM for the first, over 20 µM for the second.

OCc1cnc(-c2cc(N3CC(CN4CCOCC4)C3)c3nonc3c2)s1 [compound 1594] and OCc1coc(-c2cc(N3CC(CN4CCOCC4)C3)c3nonc3c2)n1 [compound 1606, (2-(7-(3-(morpholinomethyl)azetidin-1-yl)benzo[c][1,2,5]oxadiazol-5-yl)oxazol-4-yl)methanol] cannot be ordered by IC50: over 20 µM for the first, over 20 µM for the second.

First: N#Cc1ccccc1-c1cc(N2CC(CN3CCOCC3)C2)c2nonc2c1 [compound 1586, 2-(7-(3-(morpholinomethyl)azetidin-1-yl)benzo[c][1,2,5]oxadiazol-5-yl)benzonitrile]
Second: COc1ccc(-c2cc(N3CC(CN4CCOCC4)C3)c3nonc3c2)cn1 [compound 1670, 6-(6-methoxypyridin-3-yl)-4-(3-(morpholinomethyl)azetidin-1-yl) benzo[c][1,2,5]oxadiazole]
The IC50 of the first is 3.7-fold higher: 41.9 µM for the first, 11.2 µM for the second. The second is the more potent here.

Cc1cc(C)c(-c2cc(N3CC(CN4CCCC4)C3)c3nonc3c2)c(C)c1 [compound 1558] and c1csc(-c2cc(N3CC(CN4CCCC4)C3)c3nonc3c2)n1 [compound 1560] are within 1.5-fold of each other in IC50: 5.9 µM for the first, 6.7 µM for the second.

COc1ccc(-c2cc(N3CC(CN4CCOCC4)C3)c3nonc3c2)cc1Cl [compound 1578, 6-(3-chloro-4-methoxyphenyl)-4-(3-(morpholinomethyl)azetidin-1-yl) benzo[c][1,2,5]oxadiazole] and Clc1cc(Cl)cc(-c2cc(N3CC(CN4CCOCC4)C3)c3nonc3c2)c1 [compound 1575, 6-(3,5-dichlorophenyl)-4-(3-(morpholinomethyl)azetidin-1-yl) benzo[c][1,2,5]oxadiazole] are within 1.5-fold of each other in IC50: 2.9 µM for the first, 4 µM for the second.

Compared with OC(c1cccnc1-c1cc(N2CC(CN3CCOCC3)C2)c2nonc2c1)C(F)(F)F (stereo not shown) [compound 1563, 2,2,2-trifluoro-1-(2-(7-(3-(morpholinomethyl)azetidin-1-yl)benzo[c][1,2,5]oxadiazol-5-yl)pyridin-3-yl)ethan-1-ol], OC(c1ccncc1-c1cc(N2CC(CN3CCOCC3)C2)c2nonc2c1)C(F)(F)F (stereo not shown) [compound 1636, 2,2,2-trifluoro-1-(3-(7-(3-(morpholinomethyl)azetidin-1-yl)benzo[c][1,2,5]oxadiazol-5-yl)pyridin-4-yl) ethan-1-ol] is lower in IC50: over 20 µM for the first, 10.3 µM for the second. The second is the more potent here.

OC(c1cnc(-c2cc(N3CC(CN4CCCC4)C3)c3nonc3c2)s1)C(F)(F)F (stereo not shown) [compound 1546] and OC(CCc1cc(N2CC(CN3CCCC3)C2)c2nonc2c1)C(F)(F)F (stereo not shown) [compound 1553] are within 1.5-fold of each other in IC50: 8.4 µM for the first, 12.1 µM for the second.

Compared with OC(c1ncoc1-c1cc(N2CC(CN3CCOCC3)C2)c2nonc2c1)C(F)(F)F (stereo not shown) [compound 1667], Fc1cc(F)cc(-c2cc(N3CC(CN4CCOCC4)C3)c3nonc3c2)c1 [compound 1588, 6-(3,5-difluorophenyl)-4-(3-(morpholinomethyl)azetidin-1-yl) benzo[c][1,2,5]oxadiazole] is 1.7-fold higher in IC50: 17.5 µM for the first, 30.2 µM for the second. The first is the more potent here.

With OC1(c2ccc(-c3cc(N4CC(CN5CCOCC5)C4)c4nonc4c3)cc2)COC1 [compound 1639] the IC50 was 3.2 µM.
